Test system: DMBA-induced tumors
Experiment: Regression of DMBA-induced tumors in female rats, 11-day treatment
Type: in vivo
Settings: for total tumor volume of the treated group, day 3 / total tumor volume of the treated group, day 6 / total tumor volume of the treated group, day 10 / total tumor volume of the treated group upon sacrifice, day 11 / tumor volume of one specific animal, day 3 / tumor volume of one specific animal, day 6 / tumor volume of one specific animal, day 10 / tumor volume of one specific animal, day 11: 20 μg/day s.c., b.i.d.; for total tumor volume of the treated group, day 3: day 3 of treatment; for total tumor volume of the treated group, day 6: day 6 of treatment; for total tumor volume of the treated group, day 10: day 10 of treatment; for total tumor volume of the treated group upon sacrifice, day 11 / tumor volume of one specific animal, day 11: day 11, sacrifice; for total tumor volume of the treated group at the beginning of the treatment: day 0, 100 days after 20 mg DMBA intragastric, all tumors of the group summed; for tumor volume of one specific animal at start of treatment / tumor volume of one specific animal, day 3 / tumor volume of one specific animal, day 6 / tumor volume of one specific animal, day 10 / tumor volume of one specific animal, day 11: one animal of the group; for total volume reduction in one specific animal: start to day 11
Method: In a group of 3 female, 50-day old rats, tumors were induced by intragastric feeding of 20 mg of 7,12-dimethylbenzanthracene (DMBA) in 2 ml. of sesame oil. The animals developed tumors within 10-12 weeks. All animals were maintained on normal rations for 100 days following the DMBA administration, at which time treatment with the compound identified as Compound A was started, using a b.i.d. regimen for 11 days, 20 μg/day, the compound being administered subcutaneously dissolved in isotonic saline containing 0.1% (wt/vol.) of bovine serum albumin.
The three animals carried a total of 7 tumors at the beginning of the treatment with a total volume of 39.2 cc. After 3 days, the 7 tumors had reduced to a volume of 26.7 cc; on day 6 the volume had reduced to 18.6 cc, on day 10 it was 8.7 cc, which was also the volume upon sacrifice of the animals on day 11.
The animals were prepared and pre-treated in the same fashion as those in Example 2, but Compound B was used for the 11-day treatment. The three rats used started the regimen with a total of 7 tumors of 43.3 cc total volume. Again, the tumor volumes were measured on days 3, 6, 10 and upon sacrifice, showing 37.5, 24.9, 16.3 and 15.0 cc respectively.
Except for the use of Compound C, all steps of the preceding two examples were repeated. The total of 13.4 cc of volume of 3 tumors in two rats was reduced to 10.1, 5.4, 6.4 and 5.5 cc on days 3, 6, 10 and 11. […] However, that tumor was found reduced to 3.0 cc on day 11. A third animal treated in the same fashion started out the regimen with 4 tumors of 28.1 cc which reduced to 15 cc by day 6. The animal died thereafter of causes diagnosed as having no connection with the tumors or the treatment (chronic murine pneumonia).

SMILES	total tumor volume of the treated group, day 3	total tumor volume of the treated group, day 6	total tumor volume of the treated group, day 10	total tumor volume of the treated group upon sacrifice, day 11	total tumor volume of the treated group at the beginning of the treatment (baseline)	tumor volume of one specific animal at start of treatment (baseline)	tumor volume of one specific animal, day 3	tumor volume of one specific animal, day 6 (day 6)	tumor volume of one specific animal, day 10 (day 10)	tumor volume of one specific animal, day 11	total volume reduction in one specific animal	volume of one single tumor in one animal, day 6 (single tumor that spontaneously increased between days 6 and 10, day 6)	volume of one single tumor in one animal, day 10 (single tumor that spontaneously increased between days 6 and 10, day 10)	volume of one single tumor in one animal, day 11 (single tumor that spontaneously increased between days 6 and 10, day 11)	tumor volume of a third animal with 4 tumors at start of regimen (third animal, not in the group total, baseline)	tumor volume of a third animal with 4 tumors, by day 6 (third animal, not in the group total, day 6, animal died thereafter of unrelated chronic murine pneumonia)
CCNC(=O)[C@@H]1CCCN1C(=O)[C@H](CCCNC(=N)N)NC(=O)[C@H](CC(C)C)NC(=O)[C@@H](Cc1c[nH]c2ccccc12)NC(=O)[C@H](Cc1ccc(O)cc1)NC(=O)[C@H](CO)NC(=O)[C@H](Cc1c[nH]c2ccccc12)NC(=O)[C@H](Cc1c[nH]cn1)NC(=O)[C@@H]1CCC(=O)N1 [Compound A]	26.7 cc	18.6 cc	8.7 cc	8.7 cc	39.2 cc	11.65 cc	7.5 cc	8.1 cc	3.8 cc	3.76 cc	67.7%					
CCNC(=O)[C@@H]1CCCN1C(=O)[C@H](CCCNC(=N)N)NC(=O)[C@H](CC(C)C)NC(=O)[C@@H](Cc1ccc(O)cc1)NC(=O)[C@H](Cc1ccc(O)cc1)NC(=O)[C@H](CO)NC(=O)[C@H](Cc1c[nH]c2ccccc12)NC(=O)[C@H](Cc1c[nH]cn1)NC(=O)[C@@H]1CCC(=O)N1 [Compound B]	37.5 cc	24.9 cc	16.3 cc	15.0 cc	43.3 cc	3.6 cc	2.5 cc	1.33 cc	0.73 cc	0.125 cc	96.5%					
CCNC(=O)[C@@H]1CCCN1C(=O)[C@H](CCCNC(=N)N)NC(=O)[C@H](CC(C)C)NC(=O)[C@@H](Cc1ccccc1)NC(=O)[C@H](Cc1ccc(O)cc1)NC(=O)[C@H](CO)NC(=O)[C@H](Cc1c[nH]c2ccccc12)NC(=O)[C@H](Cc1c[nH]cn1)NC(=O)[C@@H]1CCC(=O)N1 [Compound C]	10.1 cc	5.4 cc	6.4 cc	5.5 cc	13.4 cc							0.38 cc	4.6 cc	3.0 cc	28.1 cc	15 cc
